According to patent US12496304B2, “Selective glucocorticoid receptor modifiers for treating impaired skin wound healing” (AKRIBES BIOMEDICAL GMBH, priority 2019, dated 2025):
Where two headings read alike, the source gives them in different places.

Tests used:
Collagen 1a = assay: mRNA expression in fibroblast cultures (qRT-PCR): collagen 1; type: cell-based, human; conditions: WE-1, graded concentrations, 72-hour incubation (FIG. 6A)
Description: (§1) Cells were seeded into 24-well plates and incubated with compounds in the presence or absence of wound exudates for 72 hours. Total RNA was isolated using the RNeasy Mini Kit (QIAGEN #74106) according to the manufacturer's protocol. RNA integrity and concentration for each sample was confirmed and measured with the Qubit fluorometer. Each RNA sample was then diluted to 2 ng/μl in nuclease-free doubly distilled water.
(§2) 20 ng of total RNA were reverse-transcribed into cDNA and immediately subjected to PCR amplification using the SuperScript Ill Platinum One-Step Quantitative RT-PCR System with ROX (Invitrogen #11745). qRT-PCR amplifications were performed in 20 μl reactions containing 9 μl 2× Reaction Mix with ROX, 0.4 μl SuperScript III RT/Platinum Taq Mix and 1 μl primer (final: 900 nM, Taqman Gene Expression Assay, Applied Biosystems)
(§3) The program included 30 minutes of reverse transcription at 48° C., an initial denaturation for 5 minutes at 95° C. followed by 40 cycles of denaturation at 95° C. for 15 seconds and annealing at 60° C. for 60 seconds. Reactions were set up in 96-well format PCR plates (Peqlab #732-2879) and carried out in a Mx3005P Real-Time PCR Detection System (Stratagene).
(§4) TaqMan Gene Expression Assays (Applied Biosystems) were used, which include preoptimized probe and primer sets specific for the genes being validated. The sequences and ID numbers are listed below:
(§5) The house keeping gene elongation factor 1a (EF1a) was used as a reference gene. Normalized expression was calculated using the comparative Ct (or ΔCt) method, and fold changes were derived from the 2-ΔΔCt values for each gene. Graphs were prepared using relative Ct values that were calculated by subtracting the EF1a Ct values from the corresponding Ct values for the gene being measured.

[1] = tested on: full-thickness excisional wounds; assay: Delayed wound healing in a pig model; type: in vivo
Description: The animal experiments were approved by governmental authorities. Two young farm pigs (10-12 kg) were anesthetized and full-thickness excisional wounds were developed using a 6 mm biopsy punch. During the first 5 days after wounding, the wounds were stimulated with a) 0.05% R848 (resiquimod) and 50 μl human wound exudate, b) 0.05% R848 and human serum or c) human serum alone. R848 was applied in the mornings and exudate and serum 6 hours later, in 50 μl of solutions gelified by the addition of 2% HPMC. On days 6-10, wounds were treated once daily with mapracorat or vehicle (50% PG/47.5% H2O/0.5% Tween 80/2% HPMC). The wounds were clinically scored daily. The total wound score (maximum score=21) consisted of wound appearance (dry vs. moist), size, wound content, pus, crust, erythema intensity, erythema width, swelling and necrosis. Reported values are individual values for each of the 2 pigs.

glucocorticoid receptor [2] = molecular target: T1, glucocorticoid receptor (Homo sapiens, UniProt P04150); conditions: read-out: EC50, potency for glucocorticoid receptor activation; cited from earlier work
T1 sequence (P04150 1-777): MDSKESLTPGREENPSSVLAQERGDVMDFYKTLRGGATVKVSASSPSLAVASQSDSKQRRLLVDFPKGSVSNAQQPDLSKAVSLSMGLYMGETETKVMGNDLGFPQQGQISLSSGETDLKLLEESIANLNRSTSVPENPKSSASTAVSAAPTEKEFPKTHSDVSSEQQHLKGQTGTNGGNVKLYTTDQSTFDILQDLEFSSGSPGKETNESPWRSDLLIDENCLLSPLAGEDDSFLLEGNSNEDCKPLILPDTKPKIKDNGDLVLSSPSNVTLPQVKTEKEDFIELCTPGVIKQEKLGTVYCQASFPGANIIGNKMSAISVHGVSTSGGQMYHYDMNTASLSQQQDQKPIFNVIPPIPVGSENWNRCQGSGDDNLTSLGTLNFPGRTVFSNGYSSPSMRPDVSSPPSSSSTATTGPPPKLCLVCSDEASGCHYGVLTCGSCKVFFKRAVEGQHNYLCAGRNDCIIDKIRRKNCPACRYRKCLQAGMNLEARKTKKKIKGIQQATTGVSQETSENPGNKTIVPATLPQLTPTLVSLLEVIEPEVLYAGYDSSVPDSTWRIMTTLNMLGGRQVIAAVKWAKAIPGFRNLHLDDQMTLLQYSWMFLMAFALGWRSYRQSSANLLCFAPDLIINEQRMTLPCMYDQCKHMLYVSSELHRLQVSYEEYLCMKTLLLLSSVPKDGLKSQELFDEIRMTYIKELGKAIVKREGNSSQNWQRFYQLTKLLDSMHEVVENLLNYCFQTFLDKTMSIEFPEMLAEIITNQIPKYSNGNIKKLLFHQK

[3] = tested on: primary human dermal fibroblasts (HDF); assay: Fibroblast proliferation assay (2D) in the presence of wound exudate; type: cell-based
Description: Primary human dermal fibroblasts (HDF) were purchased from CELLnTEC, Bern. They were routinely grown in Dulbecco's modified Eagle's medium (DMEM) containing 10% FCS, 2 mM glutamine, and 100 U/ml penicillin/100 μg/ml streptomycin. Media, antibiotics, and glutamine were bought from Lonza. The cells were used at passage 5-15. Cells were trypsinized and seeded at 2500 cells/well in 30 μl into the inner wells of 384-well plates in the absence or presence of graded compound concentrations with or without different dilutions of sterile-filtered WE in medium. For control samples, 30 μl medium was added instead of specific stimuli. The outer wells were loaded with sterile water. The cells were incubated for 72 hours at 37° C.
At the end of the incubation period, supernatants were removed for the determination of IL-1β, and the cells were fixed with 4% paraformaldehyde (Morphisto) for 15 minutes at room temperature and washed 3 times with PBS. A control plate was fixed after the overnight adherence of the cells (day 1) to determine the starting cell number.
Total cellular protein was determined as a measure of cell number by staining the fixed cells with sulforhodamine B (SRB, Sigma). A 0.4% SRB solution in 1% acetic acid was added to the wells for 30 minutes. The wells were then washed with 1% acetic acid until the wash solution remained colorless. After drying, the dye was eluted with 10 mM Tris-HCl, pH8.5, and absorbance was measured either at 550 or 492 nm for lower and higher cell densities, respectively. The average absorbance of the sample representing the day 1 starting cell number was subtracted from the absorbance values of the WE-treated cells.
All experiments were carried out in triplicate for each sample and concentration, and means±standard deviation (SD) were used for the evaluation of the experiment. Results are expressed as percentage of control values for unstimulated cells.

Collagen 3a = assay: mRNA expression in fibroblast cultures (qRT-PCR): collagen 3; type: cell-based, human; conditions: WE-1, graded concentrations, 72-hour incubation (FIG. 7A)
Description: as §1, §2, §3, §4, §5

glucocorticoid receptor [4] = molecular target: T1, glucocorticoid receptor; conditions: 45 minutes at 37° C.

- localization of the glucocorticoid receptor (glucocorticoid receptor [4]; 0.1 nM): N/C
- localization of the glucocorticoid receptor (glucocorticoid receptor [4]; 1 nM): N
- localization of the glucocorticoid receptor (glucocorticoid receptor [4]; 100 nM): N
- localization of the glucocorticoid receptor (glucocorticoid receptor [4]; 10 nm): N
Compound: Cc1ccc2c(NC[C@](O)(CC(C)(C)c3cc(F)cc4c3OCC4)C(F)(F)F)cccc2n1 [Mapracorat]
- collagen 1 mRNA expression (Collagen 1a): dose-dependently enhanced collagen 1 mRNA expression in the presence of WE
- total wound score ([1]; 10 mM and 1 mM, once daily days 6-10, WE-01, WE-02 and R848 as inducers of delayed wound healing): reduced the wound score from days 6 to 12
- healing of control wounds ([1]; control wounds in the presence of human serum (FIG. 13D)): did not have any negative effect on the healing of control wounds
- EC50 (glucocorticoid receptor [2]): 1.9 nM
- effect on fibroblast proliferation in the presence of >80 human wound exudates ([3]; >80 human wound exudates from chronic wound patients): > 120%
- fibroblast proliferation (2D) with wound exudate ([3]; WE-4 (FIG. 5), graded concentrations): dose-dependently reversed inhibition of wound exudate (WE)-induced fibroblast proliferation
- collagen 3 mRNA expression (Collagen 3a): at all three concentrations enhanced collagen 3 mRNA expression in the presence of WE
